Measurements: patent US20030181380A1, “Modulating lymphoid commitment and survival” (priority 2002, published 2003)
Residues, ends and D or L forms follow the SMILES beside them. *: point of attachment. Cbz = O=C(OCc1ccccc1)*; CH2F = FC*

Experiments:
[1] = tested on: V9 cells; assay: AnnexinV staining of ICN1-transduced V9 cells cultured with caspase inhibitor; type: cell-based, murine
Protocol: Apoptosis is frequently mediated by caspases, a family of cysteine proteases, whose activation leads to cell death. To further characterize the ICN1-induced cell death, ICN1-transduced V9 cells were cultured with either the general caspase inhibitor, zVAD (50 μM in DMSO), or DMSO alone (zVAD vehicle only), and analyzed 22 and 44 hours later (FIG. 3B). When cultured in control media (no zVAD), the great majority of GFP+ cells became AnnexinV positive by 22 hours post transduction, and few GFP positive cells remained at 44 hours (FIG. 3B, middle panel).
This may due to the incomplete inhibition of zVAD on the targeted caspases or, alternatively, caspase-independent pathways also contribute the B cell death.

[2] = tested on: JM-1 cells; assay: Tamoxifen-inducible ICN1 (ICN1-ER-BD) in JM-1 subclones: PI, AnnexinV, RT-PCR; type: cell-based, human; conditions: JM-1 subclones with tamoxifen-inducible ICN1
Description: To further characterize this effect, a retroviral vector containing a tamoxifen-inducible-ICN1 vector co-expressing GFP (ICN1+GFP) was stably transduced into three of the JM-1 human B-ALL leukemia/lymphoma′cell lines. To accomplish this, the estrogen receptor hormone-binding domain (ER-BD) was fused via a linker to ICN1. This fusion product was expressed on the MigR1 (MSCV-based) retroviral vector, which co-expresses GFP. JM-1 cells were transduced with this construct and subclones were selected for high expression. The GFP positive populations were sub cloned and individual clones expressing various levels of ICN1+GFP were analyzed after exposure to tamoxifen (FIG. 18A). Subclone JM-1.2 was exposed to tamoxifen and RT-PCR was performed (FIG. 18B). Growth arrest was shown by PI staining, apoptosis was measured by AnnexinV staining, and increased levels of Hairy expression were measured by RT-PCR. The percentage of non-GO/G1 cells was normalized to pre-treatment levels by duplicate experiments. The results of three experiments averaged ± standard deviation compared with EtOH control, and the average of duplicate experiments was relative to GAPDH expression and normalized to day 0 (pre-treatment) levels.
This effect was similar to the results seen with non-induced constructs.

[3] = biological target: Notch receptors on human B-ALL cell line JM-1; assay: cell-based or functional assay

Which “ICN1-transduced cells becoming AnnexinV positive” value ([1]; 50 μM zVAD, 22 hours) does the source give for `CC(NC(=O)C(NC(=O)OCc1ccccc1)C(C)C)C(=O)NC(CC(=O)O)C(=O)CF` (stereo not drawn) [zVAD] (Cbz-Val-Ala-Asp-CH2F; configuration not given here) here?
Its value is “only a few”.

What about the “protection of V9 cells from apoptosis” value ([1]; zVAD, up to 44 hours post-transduction) of the same compound?
Its value is “only partially protected”.

Which “cell cycle and apoptosis after induction” value [2] does the source give for `CC/C(=C(\c1ccccc1)c1ccc(OCCN(C)C)cc1)c1ccccc1` [tamoxifen] here?
Its value is “cell cycle (growth) arrest and apoptosis”.

For “human Jagged2 (from UniProt Q9Y219 24-1238) (ligand)”, which Hairy expression in B-ALL cells by RT-PCR at 24 hours of co-culture [3] is on record?
Its Hairy expression in B-ALL cells by RT-PCR at 24 hours of co-culture is 5 fold.

How did the Hairy expression in B-ALL cells by RT-PCR at 24 hours of co-culture [3] turn out when “human Jagged1 (from UniProt P78504 34-1218) (ligand)” was run?
Its Hairy expression in B-ALL cells by RT-PCR at 24 hours of co-culture is 5 fold.
